From paper PMC8548355 (Medicinal Chemistry Research, 2021)
≈ marks a conversion by molar mass, not a printed value.

Columns and labels:
S. aureus ATCC 29213 [1] = test: Drug interaction of 22 with FDA-approved drugs, checkerboard method; type: cell-based, Staphylococcus aureus
S. aureus ATCC 29213 [2] = test: MIC by broth microdilution against S. aureus ATCC 29213; type: cell-based, Staphylococcus aureus; conditions: for MIC: Staphylococcus aureus, ATCC29213, read-out: MIC against S. aureus ATCC 29213, broth microdilution, 37 °C, 16–18 h
K. pneumoniae BAA 1705 = test: MIC by broth microdilution against K. pneumoniae BAA 1705; type: cell-based; conditions: Klebsiella pneumoniae, BAA1705, read-out: MIC against K. pneumoniae BAA 1705
A. baumannii BAA 1605 = test: MIC by broth microdilution against A. baumannii BAA 1605; type: cell-based; conditions: Acinetobacter baumannii, BAA1605, read-out: MIC against A. baumannii BAA 1605
E. coli ATCC 25922 = test: MIC by broth microdilution against E. coli ATCC 25922; type: cell-based; conditions: Escherichia coli, ATCC25922, read-out: MIC against E. coli ATCC 25922

| Structure (SMILES) | MIC of drug in the presence of “22” “B” (S. aureus ATCC 29213 [1]; S. aureus ATCC 29213, checkerboard, in combination with 22) [µg/mL] | MIC (S. aureus ATCC 29213 [1]; Staphylococcus aureus, ATCC29213, 24 h, read-out: MIC (drug alone)) [µg/mL] | Inference (drug interaction) (S. aureus ATCC 29213 [1]; combination of 22 with the drug, S. aureus ATCC 29213) | MIC (S. aureus ATCC 29213 [2]) [µg/mL] | MIC (K. pneumoniae BAA 1705) [µg/mL] | MIC (A. baumannii BAA 1605) [µg/mL] | MIC (E. coli ATCC 25922) [µg/mL] | MIC against S. aureus ATCC 29213 (S. aureus ATCC 29213 [2]; broth microdilution, 37 °C, 16–18 h) [µg/mL] |
| --- | --- | --- | --- | --- | --- | --- | --- | --- |
| CC(C)(O/N=C(\C(=O)N[C@@H]1C(=O)N2C(C(=O)[O-])=C(C[n+]3ccccc3)CS[C@H]12)c1csc(N)n1)C(=O)O [Ceftazidime] | 16 | 16 | No interaction |  |  |  |  |  |
| O=C(Nc1ccccc1)c1ccccc1 [Compound 3, N-phenylbenzamide] |  |  |  | > 64 | > 64 | > 64 | > 64 |  |
| O=C(Nc1ccccc1)c1cccc(Cl)c1 [Compound 4, N-(phenyl)-3-chlorobenzamide] |  |  |  | > 64 | > 64 | > 64 | > 64 |  |
| O=C(Nc1ccccc1)c1ccccc1O [Compound 5, N-(phenyl)-2-hydroxybenzamide] |  |  |  | 64 (≈ 300 µM) | > 64 | > 64 | > 64 |  |
| O=C(Nc1ccccc1)c1cc(Cl)ccc1O [Compound 6, 5-Chloro-N-(phenyl)-2-hydroxy-benzamide] |  |  |  | 8 (≈ 32.3 µM) | > 64 | > 64 | > 64 |  |
| O=C(Nc1ccc(F)cc1)c1ccccc1O [Compound 7, N-(4ʹ-fluorophenyl)-2-hydroxybenzamide] |  |  |  |  | > 64 | > 64 | > 64 |  |
| O=C(Nc1ccc(F)cc1)c1cc(Cl)ccc1O [Compound 8, 5-Chloro-N-(4ʹ-fluorophenyl)-2-hydroxybenzamide] |  |  |  | 2 (≈ 7.53 µM) | > 64 | > 64 | > 64 |  |
| O=C(Nc1ccccc1F)c1ccccc1O [Compound 9, N-(2ʹ-fluorophenyl)-2-hydroxybenzamide] |  |  |  |  | > 64 | > 64 | > 64 |  |
| O=C(Nc1ccccc1F)c1cc(Cl)ccc1O [Compound 10, 5-Chloro-N-(2ʹ-fluorophenyl)-2-hydroxybenzamide] |  |  |  | 4 (≈ 15.1 µM) | > 64 | > 64 | > 64 |  |
| O=C(Nc1ccc(F)c(F)c1)c1ccccc1O [Compound 11, N-(3ʹ,4ʹ-difluorophenyl)-2-hydroxybenzamide] |  |  |  |  | > 64 | > 64 | > 64 |  |
| O=C(Nc1ccc(F)c(F)c1)c1cc(Cl)ccc1O [Compound 12, 5-Chloro-N-(3ʹ,4ʹ-difluorophenyl)-2-hydroxybenzamide] |  |  |  |  | > 64 | > 64 | > 64 | 0.5 (≈ 1.76 µM) |
| O=C(Nc1ccc(F)c(Cl)c1)c1ccccc1O [Compound 13, N-(3ʹ-chloro-4ʹ-fluorophenyl)-2-hydroxybenzamide] |  |  |  | 4 (≈ 15.1 µM) | > 64 | > 64 | > 64 |  |
| O=C(Nc1ccc(F)c(Cl)c1)c1cc(Cl)ccc1O [Compound 14, 5-Chloro-N-(3ʹ-chloro-4ʹ-fluorophenyl)-2-hydroxybenzamide] |  |  |  | 0.5 (≈ 1.67 µM) |  |  |  |  |
